From US10752587B2, “Homobispiperidinyl derivatives as liver X receptor beta agonists, compositions and their use” (Merck Sharp & Dohme Corp., priority 2015, dated 2020) come the findings set out here.

For assay [1], the target named is T1, glutathione-S-transferase (GST) tagged LXRbeta LBD (ligand binding domain) (Homo sapiens, UniProt P55055).
T1 construct: purchased Invitrogen pv4658.pps
T1 sequence (P55055 222-460 limits assumed): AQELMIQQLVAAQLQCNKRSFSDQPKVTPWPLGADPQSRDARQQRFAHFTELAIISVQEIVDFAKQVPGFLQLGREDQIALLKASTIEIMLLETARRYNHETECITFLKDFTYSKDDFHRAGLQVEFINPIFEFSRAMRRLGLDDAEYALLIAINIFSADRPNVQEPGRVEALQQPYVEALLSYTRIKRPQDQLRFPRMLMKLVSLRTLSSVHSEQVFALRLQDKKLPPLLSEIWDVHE
Kind of assay: LanthaScreen TR-FRET Liver X Receptor Coactivator Assay, co-activator recruitment to LXRbeta LBD. Type of assay: biochemical. To be noted: for Emax: read-out: LXR beta Activity @ max dose (%); for EC50: potency (Inflection Point, IP), co-activator recruitment to LXRbeta LBD, in relation to T0901317, read-out: LXR beta IP. The essentials:
(§1)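 LXRα- or LXRβ-LBD protein was added to test compounds, then fluorescein-labelled coactivator peptide plus Tb-anti-GST antibody; after room-temperature incubation, TR-FRET was read. Inflection point (IP) and Emax were expressed relative to the dual agonist reference T0901317.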

Assay [2] deals with T2, glutathione-S-transferase (GST) tagged LXRalpha LBD (ligand binding domain) (Homo sapiens, UniProt Q13133).
T2 construct: purchased Invitrogen pv4655
T2 sequence (Q13133 209-447 limits assumed): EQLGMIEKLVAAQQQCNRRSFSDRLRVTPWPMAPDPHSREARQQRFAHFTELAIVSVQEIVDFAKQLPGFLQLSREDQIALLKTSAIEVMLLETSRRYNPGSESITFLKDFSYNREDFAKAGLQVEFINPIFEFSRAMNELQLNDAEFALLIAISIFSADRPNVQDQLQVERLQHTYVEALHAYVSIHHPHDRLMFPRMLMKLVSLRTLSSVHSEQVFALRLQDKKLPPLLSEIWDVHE
Kind of assay: LanthaScreen TR-FRET Liver X Receptor Coactivator Assay, co-activator recruitment to LXRalpha LBD. Type of assay: biochemical. The settings on record: for Emax: read-out: LXR alpha Activity @ max dose (%); for EC50 / LXR alpha IP (nM): potency (Inflection Point, IP), co-activator recruitment to LXRalpha LBD, in relation to T0901317; for EC50: read-out: LXR alpha IP. In short, it runs like this:
as §1

The mark [3] stands for this setting: efficacy at max dose, in relation to reference dual agonist T0901317.

In the case of `COc1cc(F)cc([C@@](O)(C(=O)N2CC(CC3CCN(c4ccc(C(=O)N(C)C)c(Cl)c4)CC3)C2)C(F)(F)F)c1` [Example 2-61, 2-chloro-N,N-dimethyl-4-[4-({1-[(2R)-3,3,3-trifluoro-2-(3-fluoro-5-methoxyphenyl)-2-hydroxy-propanoyl]azetidin-3-yl}methyl)piperidin-1-yl]benzamide], the results for the Emax in assay [1] (setting [3]) and in assay [2] (setting [3]) were 74% and 21%, respectively. Besides, the EC50 in assay [1] stood at 7 nM; in assay [2] it was 277 nM.

For the molecule `CCOc1cccc([C@@](O)(C(=O)N2CC(CC3CCN(c4ccc(C(=O)N(C)C)c(Cl)c4)CC3)C2)C(F)(F)F)c1` [Example 2-62, 2-chloro-4-[4-({1-[(2R)-2-(3-ethoxy-phenyl)-3,3,3-trifluoro-2-hydroxy-propanoyl]azetidin-3-yl}methyl)piperidin-1-yl]-N,N-dimethyl-benzamide], the Emax in assay [1] (setting [3]) was found to be 71%; in assay [2] (setting [3]), 0%. In addition, the EC50 in assay [1] was 20 nM. Also, the “LXR alpha IP (nM)” value in assay [2] is recorded as “NO IP”.

For `CN(C)C(=O)c1ccc(N2CCC(CC3CN(C(=O)[C@](O)(c4cccc(OC(F)(F)F)c4)C(F)(F)F)C3)CC2)cc1Cl` [Example 2-63, 2-chloro-N,N-dimethyl-4-{4-[(1-{(2R)-3,3,3-trifluoro-2-hydroxy-2-[3-(trifluoro-methoxy)phenyl]propanoyl}azetidin-3-yl)methyl]piperidin-1-yl}benzamide], the Emax worked out at 79% in assay [1] (setting [3]) and 22% in assay [2] (setting [3]). For the same molecule, the EC50 in assay [1] is 21 nM; in assay [2] it was 1510 nM.

For `CCc1cccc([C@@](O)(C(=O)N2CC(CC3CCN(c4ccc(C(=O)N(C)C)c(Cl)c4)CC3)C2)C(F)(F)F)c1` [Example 2-64, 2-chloro-4-[4-({1-[(2R)-2-(3-ethyl-phenyl)-3,3,3-trifluoro-2-hydroxy-propanoyl]azetidin-3-yl}methyl)piperidin-1-yl]-N,N-dimethyl-benzamide], the Emax in assay [1] (setting [3]) turned out to be 75%; in assay [2] (setting [3]), 18%. The EC50 in assay [1] was 30 nM; in assay [2], 1070 nM.

In the case of `CN(C)C(=O)c1ccc(N2CCC(CC3CN(C(=O)C(O)(c4cccc(Cl)c4)C(F)(F)F)C3)CC2)cc1Cl` (centres unmarked) [Example 2-65, 2-chloro-4-[4-({1-[2-(3-chlorophenyl)-3,3,3-trifluoro-2-hydroxy-propanoyl]azetidin-3-yl}methyl)piperidin-1-yl]-N,N-dimethyl-benzamide], the Emax in assay [1] (setting [3]) turned out to be 89%; in assay [2] (setting [3]), 35%. Also, the EC50 in assay [1] worked out at 17 nM; in assay [2], 694 nM.

With `CN(C)C(=O)c1ccc(N2CCC(CC3CN(C(=O)C(O)(c4cccc(C(F)(F)F)c4)C(F)(F)F)C3)CC2)cc1Cl` (centres unmarked) [Example 2-66, 2-chloro-N,N-dimethyl-4-{4-[(1-{3,3,3-trifluoro-2-hydroxy-2-[3-(trifluoromethyl)phenyl]propanoyl}azetidin-3-yl)methyl]piperidin-1-yl}benzamide], the Emax in assay [1] (setting [3]) stood at 69%; in assay [2] (setting [3]) it was 14%. Moreover, the EC50 in assay [1] is 50 nM. The “LXR alpha IP (nM)” value in assay [2] is “NO IP”.

Regarding `CN(C)C(=O)c1ccc(N2CCC(CC3CN(C(=O)[C@](O)(c4cc(Cl)cc(Cl)c4)C(F)(F)F)C3)CC2)cc1Cl` [Example 2-67, 2-chloro-4-[4-({1-[(2R)-2-(3,5-dichloro-phenyl)-3,3,3-trifluoro-2-hydroxy-propanoyl]azetidin-3-yl}methyl)piperidin-1-yl]-N,N-dimethyl-benzamide], the Emax is 77% in assay [1] (setting [3]) and 9% in assay [2] (setting [3]). The EC50 in assay [1] was 19 nM. In addition, the “LXR alpha IP (nM)” value in assay [2] is “NO IP”.

In the case of `CN(C)C(=O)c1ccc(N2CCC(CC3CN(C(=O)[C@](O)(c4cccc(OC(F)(F)F)c4)C(F)(F)F)C3)CC2)cc1Cl` [Example 2-68, 2-chloro-N,N-dimethyl-4-{4-[(1-{(2R)-3,3,3-trifluoro-2-hydroxy-2-[3-(trifluoro-methoxy)phenyl]propanoyl}azetidin-3-yl)methyl]piperidin-1-yl}benzamide], the “LXR beta Activity @ max dose (%)” value in assay [1] (setting [3]) is 63%. Moreover, in assay [1], the EC50 was determined as 22 nM. The “LXR alpha Activity @ max dose (%)” value in assay [2] (setting [3]) is 16%. Besides, in assay [2], the “LXR alpha IP (nM)” value is “NO IP”.

As to `CN(C)C(=O)c1ccc(N2CCC(CC3CN(C(=O)C(N)(c4ccccc4)C(F)(F)F)C3)CC2)cc1Cl` (centres unmarked) [Example 2-69, 4-(4-{[1-(2-amino-3,3,3-trifluoro-2-phenyl-propanoyl)azetidin-3-yl]methyl}piperidin-1-yl)-2-chloro-N,N-dimethyl-benzamide], the Emax stood at 112% in assay [1] (setting [3]) and 16% in assay [2] (setting [3]). Further, the EC50 in assay [1] worked out at 1110 nM. For the same molecule, the “LXR alpha IP (nM)” value in assay [2] is reported as “NO IP”.

On to `COc1cccc([C@@](O)(C(=O)N2CC(CC3CCN(c4ccc(C(=O)N(C)C)c(Cl)c4)CC3)C2)C(F)F)c1` [Example 2-70, 2-chloro-4-[4-({1-[(2R)-3,3-difluoro-2-hydroxy-2-(3-methoxy-phenyl)propanoyl]azetidin-3-yl}methyl)piperidin-1-yl]-N,N-dimethyl-benzamide], for which the Emax amounted to 48% in assay [1] (setting [3]) and 2% in assay [2] (setting [3]). In addition, the EC50 in assay [1] is 92 nM. For the same molecule, the “LXR alpha IP (nM)” value in assay [2] is given as “NO IP”.

On to `CN(C)C(=O)c1ccc(N2CCC(CC3CCN(C(=O)[C@](O)(c4ccccc4)C(F)(F)F)C3)CC2)cc1Cl` (stereo partly drawn) [Example 2-71, 2-chloro-N,N-dimethyl-4-[4-({1-[(2R)-3,3,3-trifluoro-2-hydroxy-2-phenyl-propanoyl]pyrrolidin-3-yl}methyl)piperidin-1-yl]benzamide], for which the figures for the Emax in assay [1] (setting [3]) and in assay [2] (setting [3]) were 64% and 9%, respectively. For the same molecule, in assay [1], the EC50 was found to be 84 nM. Besides, in assay [2], the “LXR alpha IP (nM)” value was “NO IP”.

`COc1cccc([C@@](O)(C(=O)N2CCC(CC3CCN(c4ccc(C(=O)N(C)C)c(Cl)c4)CC3)C2)C(F)(F)F)c1` (stereo partly drawn) [Example 2-72, 2-chloro-N,N-dimethyl-4-[4-({1-[(2R)-3,3,3-trifluoro-2-hydroxy-2-(3-methoxy-phenyl)propanoyl]pyrrolidin-3-yl}methyl)piperidin-1-yl]benzamide]: the figures for the Emax in assay [1] (setting [3]) and in assay [2] (setting [3]) were 39% and 0%, respectively. Also, the EC50 in assay [1] came to 74 nM. The “LXR alpha IP (nM)” value in assay [2] is reported as “NO IP”.

In the case of `CC(C)(C(=O)N1CCC(CC2CCN(c3cccc(S(C)(=O)=O)c3)CC2)CC1)c1ccccc1` [Example 2-73, 1-(2-methyl-2-phenylpropanoyl)-4-({1-[3-(methylsulfonyl)phenyl]piperidin-4-yl}methyl)piperidine], the Emax in assay [1] (setting [3]) amounted to 77%; in assay [2] (setting [3]) it was 35%. Moreover, the EC50 came to 223 nM in assay [1] and 5370 nM in assay [2].

As to `CS(=O)(=O)c1cccc(N2CCC(CC3CCN(C(=O)[C@](O)(c4ccccc4)C(F)(F)F)CC3)CC2)c1` [Example 2-74, (2R)-1,1,1-trifluoro-3-[4-({1-[3-(methylsulfonyl)phenyl]piperidin-4-yl}methyl)piperidin-1-yl]-3-oxo-2-phenylpropan-2-ol], the Emax worked out at 87% in assay [1] (setting [3]) and 38% in assay [2] (setting [3]). Also, the EC50 in assay [1] amounted to 39 nM; in assay [2], 444 nM.
